Common to all, as to assay type: in vivo
The subject of data set [1] is C57B/6 mice. The data set is described as follows: Whole gut transit time (WGTT), carmine red gavage. Conditions: 1, 3 and 10 mg/kg by gavage in 50% propylene glycol; statistically significant at all doses. On the procedure: Dose responses of the effect of Compound 1 on the whole gut transit time (WGTT) were examined. Compound 1 (0, 1, 3 and 10 mg/kg) in 50% propylene glycol was administrated by gavage (5 ml/kg), followed by gavage of 0.2 ml carmine red solution (6% carmine red in 0.5% methylcellulose) into C57B/6 mice. Mice were then placed in a white cardboard box and the time was recorded as time 0. The color of stool was observed every 10 min until the red dye appeared in stool. The time that first red stool appears was recorded as the ending time. The difference between the ending time and time 0 is used to present WGTT (min).

Data set [2] concerns C57B/6 mice. The data set is described as follows: Distal colon transit time (DCTT), glass bead expulsion. Conditions: 3 mg/kg gavage. How it is done: We examined the time course of Compound 1 on distal colon transit time (DCTT) in C57B/6 mice to assess the colon motility. DCTT was performed by gently pushing a 2 mm glass bead into rectal 2 cm and then placing the mouse into a white box (time 0). The time that the glass bead was released from rectal is presented as DCTT (min). Mice were gavaged with 0 or 3 mg/kg of Compound 1 and DTCC was conducted at 30, 60, 90 and 120 min after the administration of Compound 1. […] The increase in the DCTT reached a peak at 90 min and returned at 2 hours after the administration of Compound 1 (FIG. 2).

Data set [3] is described as follows: Stool composition (total stool weight, water content). Conditions: stools collected for 3 hours. How it is done:
After gavage of Compound 1 (3 and 10 mg/kg), stools were collected immediately after expulsion for 3 hours. The wet stools were weighted as total stool weight followed by dry at 65° C. for 24 hours and weight as dry stool weight. The percent of water content in the stool was calculated by (total stool weight-dry stool weight)/total stool weight x 100.

The next data set has as its system IBS mice. The data set is described as follows: Pain sensitivity in IBS mouse model (VMR to colorectal distension). How it is done: IBS visceral pain model, induced by neonatal rectal irritation. Colonic pain sensitivity to graded colorectal balloon distension (CRD, 15, 30, 50 and 70 mmHg) was determined by visceromotor response (VMR) measured by electromyography of external oblique muscle.

The nature of data set [4]: Measurement of brain and plasma levels by LC/MS. The settings on record: mice, 10 mg/kg oral gavage, after 30 minutes. On the procedure: Compound 1 was administered to 5 mice at a dose of 10 mg/kg as a solution in 50% propylene glycol by oral gavage (5 ml/kg), After 30 minutes, mice were sacrificed and plasma and brain were harvested. The concentration of Compound 1 in plasma and brain were measured by LC/MS.

“Also recorded” adds a separate entry of the source. A value given as a limit tells only on which side of the number the result lay.

As for `O=C(O)c1nc2n(n1)-c1ccc(Cl)cc1C(c1ccccc1F)=NC2` [Compound 1, 8-Chloro-6-(2-fluorophenyl)-4H-[1,2,4]triazolo[1,5-a][1,4]benzodiazepine-2-carboxylic acid], the “effect on whole gut transit time (WGTT)” value with C57B/6 mice [1] is “dose-dependently increased WGTT”. Moreover, in the data set with C57B/6 mice [2], the “time at which DCTT returned after administration” value came to 2 h and the “time at which the increase in DCTT reached a peak” value amounted to 90 min. Moreover, the “effect on distal colon transit time (DCTT)” value in the data set with C57B/6 mice [2] (as early as 30 min after gavage) is recorded as “significantly increased the DCTT”. In data set [3] (3 mg/kg gavage), the “effect on percent of water content in the stool” value is recorded as “not” and the “effect on total stool weight” value is listed as “not”. Also, in data set [3] (10 mg/kg gavage), the “effect on percent of water content in the stool” value is “significantly reduced” and the “effect on total stool weight” value was “significantly reduced”. In the data set on IBS mice (IBS mice, 10 mg/kg, Two-Way ANOVA), the “effect on hyperalgesia (VMR to CRD)” value is on record as “significantly attenuated the hyperalgesia; also recorded: significantly reduced”. Further, the “effect on pain sensitivity (VMR to CRD)” value with IBS mice (control mice, 10 mg/kg (data not shown)) was “no effect was observed”. The average plasma concentration in data set [4] is listed as 1061+189 nM. Moreover, the concentration at 30 min in data set [4] (mouse, brain, limit of quantitation 62.5 nM) was less than 0.0625 µM.

Source of the values: patent US10844070B2, “Peripherally restricted GABA positive allosteric modulators for the treatment of irritable bowel syndrome and other ailments of the peripheral nervous system” (The Johns Hopkins University, priority 2014, dated 2020).
